Assay results from publication PMC11729419, “Thiol-Reactive or Redox-Active: Revising a Repurposing Screen Led to a New Invalidation Pipeline and Identified a True Noncovalent Inhibitor Against Papain-like Protease from SARS-CoV-2” (ACS Pharmacology & Translational Science, 2024).
Where two headings read alike, the source gives them in different places.

Key:
[1] = Table S1, 20 µM, DTT buffer
[2] = system: SARS-CoV-2 BetaCoV/Belgium/GHB-03021/2020 strain; type: cell-based; conditions: 300 μM, 2 μM CP-100356
SARS-CoV-2 Mpro = SARS-CoV-2 Mpro (Severe acute respiratory syndrome coronavirus 2, UniProt P0DTD1); type: biochemical; conditions: 10 μM; 1 mM DTT
SARS-CoV-2 PLpro-NAB = SARS-CoV-2 PLpro-NAB (Severe acute respiratory syndrome coronavirus 2, UniProt P0DTD1); assay: biochemical; conditions: for HC PLpro-NAB inhibition [%] 20 μM triplicates 1 mM DTT buffer: hit confirmation, DMSO = 0%; for HC PLpro-NAB inhibition [%] 20 μM triplicates 1 mM DTT buffer / HP PLpro-NAB inhibition [%] 20 μM triplicates 1 mM L-cys buffer: average (SD), 20 μM PR619 = 100%; for HP PLpro-NAB inhibition [%] 20 μM triplicates 1 mM L-cys buffer / IC50: hit profiling
USP14, USP7, cathepsin-L = type: biochemical, human; conditions: 10 μM; 1 mM DTT
Description: The assay was performed according to the manufacturer protocol, adapted to 384-well format with a final volume of 10 μL. […] 5 μL of cathepsin-L was added and incubated for 30 min at 25 °C. The enzymatic reaction was initiated by adding 5 μL substrate. […] Final assay concentrations of cathepsin-L and substrate were 0.01 ng/μL and 5 μM, respectively.
Plates were sealed and incubated for 30 min at 25 °C, followed by adding 5 μL/0.5 μM Ubiquitin-AMC (R&D Systems #U-550-050) substrate. The fluorescence signal was measured after 30 min of incubation (Ex/Em = 340/460; EnVision, PerkinElmer). […] The assay buffer is 50 mM Tris, 150 mM NaCl, 1 mM DTT, and 0.01% Tween 20 (pH 7.5).

SARS-CoV-2 PLpro = SARS-CoV-2 PLpro (Severe acute respiratory syndrome coronavirus 2, UniProt P0DTD1); type: biochemical; conditions: dose-response, ISG15 substrate

Structure (SMILES) | Interference inhibition [%] 20 µM based on product interference DTT BUFFER ([1]; listed as CPI-169 (EOS)) [%] | Interference inhibition [%] 20 µM based on product interference DTT BUFFER ([1]; listed as CPI-169 (FhG)) [%] | Spike RNA copy number [2] | Preference PLpro over Mpro (SARS-CoV-2 Mpro) | Interference inhibition [%] 20 µM based on product interference DTT BUFFER ([1]; listed as Semapimod (EOS)) [%] | Interference inhibition [%] 20 µM based on product interference DTT BUFFER ([1]; listed as Semapimod (FhG)) [%] | Inhibition in L-cysteine buffer versus DTT buffer (dose-response) (SARS-CoV-2 PLpro-NAB; 1 mM L-cysteine vs 1 mM DTT) | Inhibitory activity on retest in 1 mM L-cysteine (SARS-CoV-2 PLpro-NAB; 50% inhibition at 20 μM, 1 mM L-cysteine) | HC PLpro-NAB inhibition [%] 20 μM triplicates 1 mM DTT buffer (SARS-CoV-2 PLpro-NAB; 1 mM DTT buffer, listed as semapimod (EOS)) | HC PLpro-NAB inhibition [%] 20 μM triplicates 1 mM DTT buffer (SARS-CoV-2 PLpro-NAB; 1 mM DTT buffer, listed as semapimod (FhG)) | HP PLpro-NAB inhibition [%] 20 μM triplicates 1 mM L-cys buffer (SARS-CoV-2 PLpro-NAB; 1 mM L-cys buffer, listed as semapimod (EOS)) | HP PLpro-NAB inhibition [%] 20 μM triplicates 1 mM L-cys buffer (SARS-CoV-2 PLpro-NAB; 1 mM L-cys buffer, listed as semapimod (FhG)) | IC50 (SARS-CoV-2 PLpro-NAB; read-out: HP PLpro-NAB IC50 [μM] duplicates 1 mM L-cys buffer, 1 mM L-cys buffer, listed as semapimod (EOS)) [µM] | IC50 (SARS-CoV-2 PLpro-NAB; read-out: HP PLpro-NAB IC50 [μM] duplicates 1 mM L-cys buffer, 1 mM L-cys buffer, listed as semapimod (FhG)) [µM] | IC50 (SARS-CoV-2 PLpro-NAB; read-out: HP PLpro-NAB IC50 [μM] triplicates 1 mM DTT buffer, 1 mM DTT buffer, listed as semapimod (EOS)) [µM] | IC50 (SARS-CoV-2 PLpro-NAB; read-out: HP PLpro-NAB IC50 [μM] triplicates 1 mM DTT buffer, 1 mM DTT buffer, listed as semapimod (FhG)) [µM] | Selectivity versus human USP14, USP7, cathepsin-L (USP14, USP7, cathepsin-L) | Potency against PLpro compared with PLpro-NAB (SARS-CoV-2 PLpro)
CCS(=O)(=O)N1CCC([C@@H](C)n2c(C)c(C(=O)NCc3c(OC)cc(C)[nH]c3=O)c3ccccc32)CC1 [CPI-169] | 9.34 | -0.73 | reduced the Spike RNA copy number significantly | preferential inhibition of PLpro over Mpro | – | – | – | – | – | – | – | – | – | – | – | – | – | –
C/C(=N\NC(=N)N)c1cc(NC(=O)CCCCCCCCC(=O)Nc2cc(/C(C)=N/NC(=N)N)cc(/C(C)=N/NC(=N)N)c2)cc(/C(C)=N/NC(=N)N)c1 [semapimod] | – | – | – | preferential inhibition of PLpro over Mpro | 9.91 | -5.72 | did not show variations in inhibition potency or thermal stability | retained their inhibitory activity | 140.16 (2.99) % | 118.80 (3.35) % | 50.46 (6.98) % | 51.28 (5.64) % | > 20 | 14.4 | 1.21 | 5.23 | active across all of the tested targets | activity exclusively against PLpro-NAB
